In publication PMC5344539, “Nematode neuropeptides as transgenic nematicides” (PLoS Pathogens, 2017):
“Also recorded” adds a separate entry of the source.

Columns and labels:
M. incognita J2s [1] = test: Chemosensory (chemotaxis) assay of uNLP pre-treated J2s towards tomato root exudate; type: in vivo, Meloidogyne incognita; conditions: for CI score: Fig 1A, J2s incubated in 100 μM uNLP for 24 h, tomato cv. Moneymaker root exudate vs water agar plugs, counted after 3 h, mean of 10 replicates of 100 J2s, control 0.4426
Protocol: (§1) Predicted uNLPs from both M. incognita and G. pallida were synthesised by EZBiolab and dissolved into pH adjusted ddH2O to make a 5 mM stock which was aliquoted and stored at -20°C. J2s of both M. incognita and G. pallida were incubated for 24 hours in 200 μl of each peptide in a 24 well plate (SPL Lifesciences, South Korea) at a defined concentration.
(§2) A 60 mm Petri dish was divided into two segments, a positive and a negative side, with a 0.5 cm 'dead zone' either side of the centre point. The petri dish was filled with 15 ml of 0.25% w/v agar which was allowed to solidify. 3 ml of 0.25% w/v agar slurry in spring water (pH 7, agitated with a magnetic stirrer for several hours to give a smooth consistency) was added to the petri dish and spread evenly over the surface. Root diffusate (attractant) and water only (control) 0.25% agar plugs were embedded in the agar slurry, either side of the assay arena. Root diffusate was collected from 10 tomato plants, aged 3–6 weeks in 1 litre pots, by pouring 500 ml of ddH20 through the soil three times. Diffusate from each plant was combined, filter sterilised and stored at 4°C for a maximum of 1 month. Root diffusate agar plugs were made by melting 1.25% agar in ddH20, cooling to 50°C before mixing with 4 parts of root diffusate. The agar was then allowed to solidify at room temperature. 100 uNLP pre-treated M. incognita or G. pallida J2s were added by pipette to the centre of the plate. J2s which moved out of the 'dead zone' after 3 hours were counted and their location (+/-) scored. The distribution of J2s were used to create a chemotaxis index for each plate, which formed one replicate, a total of 10 replicates where completed for each uNLP treatment.

M. incognita J2s [2] = test: Serotonin-induced stylet thrusting assay; type: in vivo, Meloidogyne incognita; conditions: Fig 1C; J2s incubated in 100 μM uNLP for 24 h; stylet thrusts in 5 mM serotonin, counted 1 min; normalised to control = 100%; mean, at least 30 J2s
Protocol: as §1
Stylet thrusting assays where performed by incubating 100 M. incognita or G. pallida J2s for 15 minute in 5 mM or 2 mM serotonin (Sigma Aldrich, USA), respectively. J2s were placed on a glass slide and stylet thrusts were counted for randomly selected J2s, for 1 minute each. Counts for a given cohort of J2s were taken in a maximum interval of 15 minutes. Longer counting intervals, making for longer serotonin incubations, yielded inconsistent results. At least 30 J2s were counted for each neuropeptide treatment.

M. incognita J2s [3] = test: Plant protection assay, B. subtilis secreting uNLPs; type: in vivo, Meloidogyne incognita; conditions: Fig 4B; peptide secreted by transgenic B. subtilis culture in tomato invasion arena with 500 J2s; control = 100%; mean
Protocol: (§3) Tomato seeds were sterilised with 2.5% NaOCl for 15 minutes, washed 5 times in ddH20 and germinated on 0.5% Murashige and Skoog plates at 23°C. […] Invasion assays were performed by mixing 500 pre-treated M. incognita or G. pallida J2s with agar slurry and a single tomato seedling (2 days post germination) in a 6 well plate. Assays were left at 23°C for 24 hours in the case of M. incognita and at 18°C for 24 hours in the case of G. pallida under a 16 hour light and 8 hour darkness cycle. Seedlings were stained using acid fuschin [69] and the number of nematodes within the roots counted. At least five seedlings were used for M. incognita infections assays, with at least 15 seedlings used for G. pallida infections assays (due to increased variation).
(§4) B. subtilis were grown overnight in LB media containing ampicillin (100 μg/ml) at 37°C with shaking, and harvested in the log phase of growth determined by measuring OD600nm. Five ml of culture at 0.5 OD was spun down and the pellet mixed with 3 ml of agar slurry and 500 J2s from either G. pallida or M. incognita. C. reinhardtii clones were grown at 23°C with shaking, cultures in the log phase were measured at OD750 and 5 ml of culture at 0.5 OD was pelleted by centrifugation. C. reinhardtii pellets were mixed with 3 ml of agar slurry and 500 J2s from either G. pallida or M. incognita. Plant invasion assays were performed as described above. […]

mixed-stage C. elegans = test: C. elegans chemotaxis assay (non-target); type: in vivo, Caenorhabditis elegans; conditions: worms soaked in 100 μM uNLP 24 h, counted after 1 h, 8 replicates
Protocol: C. elegans wild-type N2 Bristol strain were obtained from the C. elegans Genomics Center and maintained on a Escherichia coli (strain OP50) lawn on nematode growth medium (NGM) agar plates (3 g/l NaCl, 17 g/l agar, 2.5 g/l peptone, 5 mg/l cholesterol, 25 mM KH2PO4 (pH 6.0), 1 mM CaCl2, 1 mM MgSO4) at 20°C [70]. Chemotaxis assays were performed in a 9 cm diameter Petri dish on NGM agar which was split into a positive and negative side with a central ‘dead zone’ of 1.5 cm diameter. 100 mixed-staged C. elegans were washed three times in M9 buffer and soaked in 100 μM PPN uNLP, or M9 vehicle control for 24 hours. 2 μl of 50 mM sodium acetate, 0.5% pyrazine, 0.5% benzaldehyde or 0.5% diacetyl was spotted onto the positive side, 2 μl of ddH20 was spotted onto the negative side. Pyrazine, benzaldehyde and diacetyl volatile attractants were assayed immediately whereas the water soluble sodium acetate was assayed 18 hours following addition to the plate. Assays were maintained in the dark at 20°C, and counted after 1 hour. Eight replicates were conducted for each C. elegans attraction assay.

[4] = tested on: S. carpocapsae infective juveniles (IJs); test: S. carpocapsae host-finding assay (non-target); type: in vivo, Steinernema carpocapsae; conditions: Fig 5E; chemotaxis towards insect host Galleria mellonella; 100 IJs incubated 24 h in 100 μM uNLP; n = 5; control 0.2315
Protocol: S. carpocapsae were cultured in Galleria mellonella at 23°C. Infective juveniles (IJs) were collected using a White trap in PBS. Freshly emerged IJs were used for each assay. 100 IJs were incubated for 24 hours in 100 μM of selected uNLPs, and host-finding assays (n = 5) performed as in Morris et al..

M. incognita J2s [5] = test: Tomato invasion assay with uNLP pre-treated J2s; type: in vivo, Meloidogyne incognita
Protocol: as §1, §3

M. incognita J2s [6] = test: Plant protection assay, C. reinhardtii secreting uNLPs; type: in vivo, Meloidogyne incognita; conditions: Fig 4A; peptide secreted by transgenic C. reinhardtii culture in tomato invasion arena with 500 J2s; relative to untransformed C. reinhardtii = 100%; mean
Protocol: as §3, §4

G. pallida J2s [7] = test: Tomato invasion assay with uNLP pre-treated J2s; type: in vivo, Globodera pallida; conditions: Fig 2B; 500 J2s incubated in 100 μM uNLP for 24 h; single tomato seedling, 24 h at 18°C; normalised to negative control = 100%; mean
Protocol: as §1, §3

G. pallida J2s [8] = test: Chemosensory (chemotaxis) assay of uNLP pre-treated J2s towards tomato root exudate; type: in vivo, Globodera pallida; conditions: Fig 2A; J2s incubated in 100 μM uNLP for 24 h; tomato cv. Moneymaker root exudate vs water agar plugs; counted after 3 h; mean of 10 replicates of 100 J2s; control 0.4154
Protocol: as §1, §2

[9] = Fig 5A, attractant sodium acetate (50 mM), control 0.4269
[10] = Fig 5B, attractant pyrazine (0.5%), control 0.4904
[11] = Fig 5C, attractant benzaldehyde (0.5%), control 0.7026
[12] = Fig 5D, attractant diacetyl (0.5%), control 0.6638

Substance	CI score (M. incognita J2s [1])	CI score (mixed-stage C. elegans; [9])	CI score (mixed-stage C. elegans; [10])	CI score (mixed-stage C. elegans; [11])	CI score (mixed-stage C. elegans; [12])	CI score [4]	% Invasion (G. pallida J2s [7]) [%]	CI score (G. pallida J2s [8])	other results
MVSWQPV [Mi-NLP-40, predicted unamidated NLP of M. incognita, synthesised; also secreted from transgenic B. subtilis]	-0.04	0.482	0.5018	0.6686	0.5858	0.3057	–	–	% Thrusting (M. incognita J2s [2]): 210%; % Invasion (M. incognita J2s [3]): 23.72%
GGGRYFIRPFADQ [Mi-NLP-9f, predicted unamidated NLP of M. incognita, synthesised; also secreted from transgenic C. reinhardtii]	-0.26	0.5261	0.4599	0.7463	0.6	0.2462	–	–	effect on chemosensation (in words) (M. incognita J2s [1]; 100 μM uNLP, 24 h, relative to controls): inhibit chemosensation; also recorded: inhibited; effect on host invasion (in words) (M. incognita J2s [5]; 100 μM uNLP, 24 h, tomato cv. Moneymaker, relative to controls): inhibited; % Invasion (M. incognita J2s [5]; Fig 1B, 500 J2s incubated in 100 μM uNLP for 24 h, single tomato seedling, 24 h at 23°C, normalised to negative control = 100%, mean): 28.22%; % Invasion (M. incognita J2s [6]): 10.32%
SGIQTFRDDYDEKQAGEL [Gp-NLP-21d, predicted unamidated NLP of G. pallida, synthesised]	–	–	–	–	–	–	2.01	–	–
AGGRYFMRHFDDSPFAGWMA [Gp-NLP-21g, predicted unamidated NLP of G. pallida, synthesised]	–	–	–	–	–	–	214.80	-0.01357	–
GGARAFNFFAPDE [Gp-NLP-21b, predicted unamidated NLP of G. pallida, synthesised]	–	–	–	–	–	–	6.90	-0.117	–
